According to patent EP1632243A1 (priority 2003, dated 2004):
Values after ≈ are worked out from the molar mass of the structure shown. Like-named read-outs stand apart in the source and are kept apart here. Residues, ends and D or L forms follow the SMILES beside them.

Experiments:
[1] = tested on: MT-4 cells; assay: Cytotoxicity to MT-4 cells, MTT method; assay type: cell-based; settings: 12000ng/ml to 24ng/ml, 6 days
Description: Then test drugs were added. […] Cell growth was subsequently determined by the MTT method.

[2] = tested on: No.04 coronavirus
[3] = in vitro; settings: human, 293 cells

Row | Molecule | cell growth [1] | inhibition of coronavirus in 293 cell cultures [2] | treatment index (TI) [2] | half-inhibitory concentration (IC50) ([2]; 24 h) [µg/mL] | minimum inhibitory concentration (MIC) ([2]; 24 h) [µg/mL] | CC50 at 144 h [3] [µg/mL] | MNTC at 144 h [3] [µg/mL] | half-inhibitory concentration (IC50) [2] [µg/mL] | minimum inhibitory concentration (MIC) [2] [µg/mL]
1 | CC(C)C[C@H](NC(=O)[C@H](CCCCN)NC(=O)[C@@H](N)Cc1ccc(O)cc1)C(=O)N1CCC[C@H]1C(=O)NCC(=O)N[C@@H](Cc1c[nH]cn1)C(=O)N[C@@H](Cc1c[nH]cn1)C(=O)N[C@@H](Cc1c[nH]cn1)C(=O)N[C@@H](Cc1c[nH]cn1)C(=O)N[C@@H](Cc1ccc(O)cc1)C(=O)N[C@@H](CCCNC(=N)N)C(=O)N1CCC[C@H]1C(=O)O [AP-9] (H-YKLPGHHHHYRP-OH; N-terminus and C-terminus assumed) | not affected | capable of inhibiting coronavirus | 32 | 15.6 ± 0 | 31.3 ± 0 (≈ 0.0203 mM) | – | – | – | –
2 | Nc1nc(O)c2ncn(COC(CO)CO)c2n1 [Ganciclovir, ganciclovir] | – | – | – | – | – | > 6000 | > 6000 | – | –
3 | AP-1: high-affinity peptide antagonist targeting HAb18G/CD147, amino acid sequence SEQ ID NO:3 (MTHDPVISLPTT) | not affected | capable of inhibiting coronavirus | 16 | – | – | – | – | 31.25 ± 0 | 62.25 ± 0
4 | AP-6: high-affinity peptide antagonist targeting HAb18G/CD147, amino acid sequence SEQ ID NO:8 (YPFHHKHWHRPN) | not affected | capable of inhibiting coronavirus | 16 | – | – | – | – | 31.25 ± 0 | 62.25 ± 0
